Laboratory results published in US9636335B2, “Heteroaryl compounds as 5-HT4 receptor ligands” (Suven Life Sciences Ltd, priority 2011, dated 2017).
Structures can show the parent of a compound that is named as a salt.

Assays:
[1] = molecular target: recombinant human 5-HT4 receptor (Homo sapiens (Human), UniProt Q13639); test: Determination of EC50 values for 5-HT4 receptor (CHO cells, pCRE-Luc reporter); assay type: cell-based; settings: CHO cells expressing human 5-HT4 receptor, luciferase activity, 4 hours incubation
Sequence of recombinant human 5-HT4 receptor (Q13639 whole entry): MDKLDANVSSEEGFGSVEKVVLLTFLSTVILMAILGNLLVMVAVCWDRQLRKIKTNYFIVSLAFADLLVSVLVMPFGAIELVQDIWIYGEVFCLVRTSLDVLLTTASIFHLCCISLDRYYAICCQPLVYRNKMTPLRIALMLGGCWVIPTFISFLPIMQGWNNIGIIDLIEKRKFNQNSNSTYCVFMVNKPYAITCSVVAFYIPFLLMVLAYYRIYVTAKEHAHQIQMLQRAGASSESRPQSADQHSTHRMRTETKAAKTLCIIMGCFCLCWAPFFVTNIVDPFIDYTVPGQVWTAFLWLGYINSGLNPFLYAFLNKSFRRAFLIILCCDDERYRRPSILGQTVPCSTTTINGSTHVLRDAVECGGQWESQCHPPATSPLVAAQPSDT
Method: A stable CHO cell line expressing recombinant human 5-HT4 receptor and pCRE-Luc reporter system was used for cell-based assay. The assay offers a non-radioactive based approach to determine binding of a compound to GPCRs. In this specific assay, the level of intracellular cyclic AMP which is modulated by activation or inhibition of the receptor is measured. The recombinant cells harbor luciferase reporter gene under the control of cAMP response element.
The above cells were grown in 96 well clear bottom white plates in Hams F12 medium containing 10% fetal bovine serum (FBS). Prior to the addition of compounds or standard agonist, cells were serum starved overnight. Increasing concentrations of test compounds were added in OptiMEM medium to the cells. The incubation was continued at 37° C. in CO2 incubator for 4 hours. Medium was removed and cells were washed with phosphate buffered saline. The cells were lysed and luciferase activity was measured in a Luminometer. Luminescence units were plotted against the compound concentrations using Graphpad software.

Male Wister rats = test: Object recognition task model; assay type: in vivo; settings: p.o., rat
Method: The cognition enhancing properties of compounds of this invention were estimated by using this model.
Male Wister rats (230-280 grams) were used as experimental animals. Four animals were housed in each cage. […] Also the rats were habituated to individual arenas for 1 hour in the absence of any objects.
One group of 12 rats received vehicle (1 mL/Kg) orally and another set of animals received compound of the formula (I) either orally or i.p., before one hour of the familiar (T1) and choice trial (T2).
The experiment was carried out in a 50×50×50 cm open field made up of acrylic. In the familiarization phase, (T1), the rats were placed individually in the open field for 3 minutes, in which two identical objects (plastic bottles, 12.5 cm height×5.5 cm diameter) covered in yellow masking tape alone (a1 and a2) were positioned in two adjacent corners, 10 cms from the walls. After 24 hours of the (T1) trial for long-term memory test, the same rats were placed in the same arena as they were placed in T1 trial. Choice phase (T2) rats were allowed to explore the open field for 3 minutes in presence of one familiar object (a3) and one novel object (b) (Amber color glass bottle, 12 cm high and 5 cm in diameter). Familiar objects presented similar textures, colors and sizes. During the T1 and T2 trial, explorations of each object (defined as sniffing, licking, chewing or having moving vibrissae whilst directing the nose towards the object at a distance of less than 1 cm) were recorded separately by stopwatch. […] T1 is the total time spent exploring the familiar objects (a1+a2). T2 is the total time spent exploring the familiar object and novel object (a3+b).

[2] = Rodent pharmacokinetic study; assay type: in vivo, Male Wister rats; settings: plasma, Wistar/Male rat
Method: Three to five animals were housed in each cage. […] Animals were fasted over night before oral dosing (p.o) and food pellets were allowed 2 hours post dosing, whereas intravenous dosing food and water were provided as ad libitum. Three rats were dosed with compounds of formula (I) (10 mg/kg) orally and intravenously (05 mg/kg).
At each time point blood was collected through jugular vein and immediately replenish with an equivalent volume of normal saline from freely moving rats. Collected blood was transferred into a labeled eppendr off containing 10 μL of heparin as anticoagulant. Typically blood samples were collected as following time points: Pre dose, 0.08 (only i.v.), 0.25, 0.5, 1, 2, 4, 6, 8, and 24 hours post dose (n=3). Blood was centrifuged at 4000 rpm for 10 minutes. Plasma was prepared and stored frozen at −20° C. until analysis.
Pharmacokinetic parameters Cmax, Tmax, AUCt, T1/2 and Bioavailability were calculated by non-compartmental model using standard non-compartmental model by using WinNonLin 5.0.1 or Phoenix WinNonlin 6.2 version Software package.

| Structure (SMILES) | EC50 [1] [µM] | other results |
| --- | --- | --- |
| Nc1c(Cl)cc(-c2nnc(C3CCN(C4CCCC4)CC3)o2)c2c1CCCO2 [Example 17, 6-Chloro-8-[5-(1-cyclopentyl-piperidin-4-yl)-[1,3,4]oxadiazol-2-yl]-chroman-5-ylamine tartarate salt] | 0.0023 |  |
| Nc1c(Cl)cc(-c2nnc(C3CCN(CC4CCOCC4)CC3)o2)c2c1CCO2 [Example 33, 5-Chloro-7-{5-[1-(tetrahydro-pyran-4-ylmethyl)-piperidin-4-yl]-[1,3,4]oxadiazol-2-yl}-2,3-dihydro-benzofuran-4-ylamine oxalate] | 0.021 |  |
| COCCCN1CCC(c2nnc(-c3cc(Cl)c(N)c4c3OCCO4)o2)CC1 [Example 31, 6-Chloro-8-{5-[1-(3-methoxy-propyl)-piperidin-4-yl]-[1,3,4]oxadiazol-2-yl}-2,3-dihydro-benzo[1,4]dioxin-5-ylamine oxalate salt] | 0.0169 |  |
| Nc1c(Cl)cc(-c2nnc(C3CCN(C4CCOCC4)CC3)o2)c2c1CCCO2.O=C(O)C(=O)O [Example 25, 6-Chloro-8-{5-[1-(tetrahydro-pyran-4-yl)-piperidin-4-yl]-[1,3,4]oxadiazol-2-yl}-chroman-5-ylamine oxalate salt] | 0.0057 | Exploration time mean ± S.E.M, Familiar object (Male Wister rats; 3 mg/kg): 5.93 ± 0.87 s; Exploration time mean ± S.E.M, Novel object (Male Wister rats; 3 mg/kg): 14.70 ± 2.34 s; Inference (Male Wister rats; 3 mg/kg): Active |
| Nc1c(Cl)cc(-c2nnc(C3C4CN(CC5CCC5)CC43)o2)c2c1CCCO2 (stereo not drawn) [Example 23, 6-Chloro-8-[5-(3-cyclobutylmethyl-3-aza-bicyclo[3.1.0]hex-6-yl)-[1,3,4]oxadiazol-2-yl]-chroman-5-ylamine oxalate salt] | 0.02 |  |
| Nc1c(Cl)cc(-c2nnc(C3CCN(C4CC4)CC3)o2)c2c1OCCO2 [Example 29, 6-Chloro-8-[5-(1-cyclopropyl-piperidin-4-yl)-[1,3,4]oxadiazol-2-yl]-2,3-dihydro-benzo[1,4]dioxin-5-ylamine oxalate salt] | 0.0215 |  |
| Nc1c(Cl)cc(-c2nnc(CCN3CCCCC3)o2)c2c1CCCO2 [Example 18, 6-Chloro-8-[5-(2-piperidin-1-yl-ethyl)-[1,3,4]oxadiazol-2-yl]-chroman-5-ylamine] | 0.053 |  |
| CC(C)n1nc(-c2nnc(C3CCN(CC4CC4)CC3)o2)c2ccccc21 [Example 39, 3-[5-(1-Cyclopropylmethyl-piperidin-4-yl)-[1,3,4]oxadiazol-2-yl]-1-isopropyl-1H-indazole] |  | AUC(0-t) ([2]; 5 mg/kg, intravenous (bolus)): 1060 ± 163 ng·h/mL; Tmax ([2]; 5 mg/kg, intravenous (bolus)): 4.8 min; half-life ([2]; 5 mg/kg, intravenous (bolus)): 99 ± 28.2 min; AUC(0-t) ([2]; 10 mg/kg, oral (gavage)): 394 ± 174 ng·h/mL; Tmax ([2]; 10 mg/kg, oral (gavage)): 25.2 ± 7.2 min; half-life ([2]; 10 mg/kg, oral (gavage)): 82.8 ± 4.2 min |
| Nc1c(Cl)cc(-c2nnc(C3CCN(C4CCOCC4)CC3)o2)c2c1OCCO2 [Example 30, 6-Chloro-8-{5-[1-(tetrahydro-pyran-4-yl)-piperidin-4-yl]-[1,3,4]oxadiazol-2-yl}-2,3-dihydro-benzo[1,4]dioxin-5-ylamine oxalate salt] | 0.0073 |  |
| Nc1c(Cl)cc(-c2nnc(C3CCN(C4CC4)CC3)o2)c2c1CCCO2.Nc1c(Cl)cc(-c2nnc(C3CCN(C4CC4)CC3)o2)c2c1CCCO2.O=C(O)/C=C/C(=O)O [Example 1, 6-Chloro-8-[5-(1-cyclopropyl-piperidin-4-yl)-[1,3,4]oxadiazol-2-yl]-chroman-5-ylamine hemi fumarate] | 0.0285 | Exploration time mean ± S.E.M, Familiar object (Male Wister rats; 3 mg/kg): 5.08 ± 0.1 s; Exploration time mean ± S.E.M, Novel object (Male Wister rats; 3 mg/kg): 13.80 ± 2.20 s; Inference (Male Wister rats; 3 mg/kg): Active |
| CC(C)N1CC2C(C1)C2c1nnc(-c2cc(Cl)c(N)c3c2OCCC3)o1 (stereo not drawn) [Example 22, 6-Chloro-8-[5-(3-isopropyl-3-aza-bicyclo[3.1.0]hex-6-yl)-[1,3,4]oxadiazol-2-yl]-chroman-5-ylamine oxalate salt] | 0.048 |  |
| Nc1c(Cl)cc(-c2nnc(C3CCN(C4CCC4)CC3)o2)c2c1CCO2 [Example 28, 5-Chloro-7-[5-(1-cyclobutyl-piperidin-4-yl)-[1,3,4]oxadiazol-2-yl]-2,3-dihydro-benzofuran-4-ylamine oxalate salt] | 0.01 |  |
| Nc1c(Cl)cc(-c2nnc(C3CCN(CC4CCC4)CC3)o2)c2c1OCCO2 [Example 15, 6-Chloro-8-[5-(1-cyclobutylmethyl-piperidin-4-yl)-[1,3,4]oxadiazol-2-yl]-2,3-dihydro-benzo[1,4]dioxin-5-ylamine] | 0.0062 | Exploration time mean ± S.E.M, Familiar object (Male Wister rats; 1 mg/kg): 12.03 ± 1.73 s; Exploration time mean ± S.E.M, Novel object (Male Wister rats; 1 mg/kg): 19.14 ± 3.02 s; Inference (Male Wister rats; 1 mg/kg): Active |
| Nc1c(Cl)cc(-c2nnc(C3C4CN(CC5CC5)CC43)o2)c2c1CCCO2 (stereo not drawn) [Example 24, 6-Chloro-8-[5-(3-cyclopropylmethyl-3-aza-bicyclo[3.1.0]hex-6-yl)-[1,3,4]oxadiazol-2-yl]-chroman-5-ylamine] | 0.025 |  |
| Nc1c(Cl)cc(-c2nnc(C3CCN(CC4CC4)CC3)o2)c2c1CCCO2 [Example 11, 6-Chloro-8-[5-(1-cyclopropylmethyl-piperidin-4-yl)-[1,3,4]oxadiazol-2-yl]-chroman-5-ylamine] | 0.0102 |  |
| CC(C)N1CCC(c2nnc(-c3cc(Cl)c(N)c4c3OCCC4)o2)CC1 [Example 12, 6-Chloro-8-[5-(1-isopropyl-piperidin-4-yl)-[1,3,4]oxadiazol-2-yl]-chroman-5-ylamine] | 0.0153 |  |
| Nc1c(Cl)cc(-c2nnc(C3CCN(CC4CCC4)CC3)o2)c2c1CCCO2 [Example 10, 6-Chloro-8-[5-(1-cyclobutylmethyl-piperidin-4-yl)-[1,3,4]oxadiazol-2-yl]-chroman-5-ylamine] | 0.0057 |  |
| Nc1c(Cl)cc(-c2nnc(C3CCN(C4CCOCC4)CC3)o2)c2c1CCO2 [Example 7, 5-Chloro-7-{5-[1-(tetrahydropyran-4-yl)piperidin-4-yl]-[1,3,4]oxadiazol-2-yl}-2,3-dihydro benzofuran-4-yl amine oxalate salt] | 0.007 |  |
| COCCCN1CCC(c2nnc(-c3cc(Cl)c(N)c4c3OCCC4)o2)CC1 [Example 13, 6-Chloro-8-{5-[1-(3-methoxy-propyl)-piperidin-4-yl]-[1,3,4]oxadiazol-2-yl}-chroman-5-ylamine] | 0.0204 |  |
| CCOC(=O)N1CCC(N2CCC(c3nnc(-c4cc(Cl)c(N)c5c4OCCO5)o3)CC2)CC1 [Example 6, 4-[5-(8-amino-7-chloro-2,3-dihydrobenzo[1,4]dioxin-5-yl)-[1,3,4]oxadiazol-2-yl]-[1,4′]bipiperidinyl-1′-carboxylic acid ethyl ester oxalate salt] | 0.0042 |  |
| Nc1c(Cl)cc(-c2nnc(C3CCN(C4CC4)CC3)o2)c2c1CCO2 [Example 27, 5-Chloro-7-[5-(1-cyclopropyl-piperidin-4-yl)-[1,3,4]oxadiazol-2-yl]-2,3-dihydro-benzofuran-4-ylamine oxalate salt] | 0.06 |  |
| CC(C)n1nc(-c2nnc(CCN3CCCCC3)o2)c2ccccc21 [Example 49, 1-Isopropyl-3-[5-(2-piperidin-1-yl-ethyl)-[1,3,4]oxadiazol-2-yl]-1H-indazole oxalate] | 0.181 |  |
| COCCCN1CCC(c2nnc(-c3nn(C(C)C)c4ccccc34)o2)CC1.O=C(O)C(=O)O [Example 3, 1-isopropyl-3-{5-[1-(3-methoxypropyl)piperidin-4-yl]-[1,3,4]oxadiazol-2-yl}-1H-indazole oxalate salt] |  | Tmax ([2]; 5 mg/kg, intravenous (bolus)): 4.8 min; Tmax ([2]; 10 mg/kg, oral (gavage)): 25.2 ± 7.2 min |
| CCOC(=O)N1CCC(N2CCC(c3nnc(-c4cc(Cl)c(N)c5c4OCC5)o3)CC2)CC1 [Example 34, 4-[5-(4-Amino-5-chloro-2,3-dihydro-benzofuran-7-yl)-[1,3,4]oxadiazol-2-yl]-[1,4′]bipiperidinyl-1′-carboxylic acid ethyl ester oxalate] | 0.005 |  |
